The test system of one assay is P 388 leukemia. The arrangement: species or system mice. The following applies: mouse, in vivo.
Another assay deals with L1210 cells. Description: cells. The class given is cell-based. To be noted: Mus musculus, L1210, 48 h, read-out: IC50 (concentration which 50% inhibits the proliferation of the control cells).

The structures appear in SMILES notation.

For the molecule `CC[C@]1(O)C[C@@H]2CN(CCc3c([nH]c4ccccc34)[C@@](C(=O)OC)(c3cc4c(cc3OC)N(C)[C@H]3[C@@](O)(C(=O)OC)[C@H](OC(C)=O)[C@]5(CC)C=CCN6CC[C@]43[C@@H]65)C2)C1` [Vinblastine, vinblastine], in the assay on P 388 leukemia, the “SURVIVORS 30 days” value was 1/6, the “SURVIVORS 60 days” value was 1/6 and the “T/C % (mean survival time test group over untreated control group)” value is reported as 245%. Moreover, in the assay with L1210 cells, the IC50 came out at 2.3 ± 0.5 nM.
As for `CC[C@]1(O)C[C@H]2CN(CCc3c([nH]c4ccccc34)[C@@](C(=O)OC)(c3cc4c(cc3OC)N(C=O)[C@H]3[C@@](O)(C(=O)OC)[C@H](OC(C)=O)[C@]5(CC)C=CCN6CC[C@]43[C@@H]65)C2)C1` [Vincristine, vincristine], in the assay on P 388 leukemia, the “SURVIVORS 30 days” value was 0/6, the “SURVIVORS 60 days” value is listed as 0/6 and the “T/C % (mean survival time test group over untreated control group)” value came to 192%. The IC50 in the assay with L1210 cells turned out to be 4.2 ± 0.7 nM.

The record behind these values is patent US5100881A (priority 1989, dated 1992).
